According to patent US20080096811A1, “[…] VPAC2 RECEPTOR PEPTIDE AGONISTS” (Eli Lilly and Company, published 2008):
Like-named read-outs stand apart in the source and are kept apart here. *1 amine or outer side, *2 acyl side, *3 side chain or, on linkers, in order; H or OH if unused. Where a SMILES comes first, the peptide text is derived from it. Where no end group is shown, it is not given here. Side-chain parts run from the residue outwards. The star is where a group is joined. γGlu = O=C(O)[C@H](CCC(=O)[*:2])N[*:1]; Palmitoyl = CCCCCCCCCCCCCCCC(=O)*; Hexanoyl = CCCCCC(=O)*

Key:
[1] = target: T1, human VPAC1 (Homo sapiens, UniProt P32241); assay: Filter binding assay, human VPAC1 membranes, 125I-labeled VIP tracer; design: expressed in transfected cells
T1 sequence (P32241 31-457): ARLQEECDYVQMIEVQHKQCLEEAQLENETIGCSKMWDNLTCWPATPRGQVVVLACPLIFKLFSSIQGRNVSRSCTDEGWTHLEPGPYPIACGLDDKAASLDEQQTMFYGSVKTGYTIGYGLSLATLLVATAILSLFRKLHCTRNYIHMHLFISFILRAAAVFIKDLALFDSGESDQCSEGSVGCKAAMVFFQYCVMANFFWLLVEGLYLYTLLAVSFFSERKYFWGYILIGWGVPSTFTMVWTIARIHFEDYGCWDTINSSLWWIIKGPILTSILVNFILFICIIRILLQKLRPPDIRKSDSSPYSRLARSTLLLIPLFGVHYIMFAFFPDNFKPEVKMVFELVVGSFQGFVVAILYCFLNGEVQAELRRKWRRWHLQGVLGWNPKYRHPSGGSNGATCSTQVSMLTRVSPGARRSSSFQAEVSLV

[2] = target: T2, human PAC1 (Homo sapiens, UniProt P41586); assay: cell-based
T2 sequence (P41586 21-468): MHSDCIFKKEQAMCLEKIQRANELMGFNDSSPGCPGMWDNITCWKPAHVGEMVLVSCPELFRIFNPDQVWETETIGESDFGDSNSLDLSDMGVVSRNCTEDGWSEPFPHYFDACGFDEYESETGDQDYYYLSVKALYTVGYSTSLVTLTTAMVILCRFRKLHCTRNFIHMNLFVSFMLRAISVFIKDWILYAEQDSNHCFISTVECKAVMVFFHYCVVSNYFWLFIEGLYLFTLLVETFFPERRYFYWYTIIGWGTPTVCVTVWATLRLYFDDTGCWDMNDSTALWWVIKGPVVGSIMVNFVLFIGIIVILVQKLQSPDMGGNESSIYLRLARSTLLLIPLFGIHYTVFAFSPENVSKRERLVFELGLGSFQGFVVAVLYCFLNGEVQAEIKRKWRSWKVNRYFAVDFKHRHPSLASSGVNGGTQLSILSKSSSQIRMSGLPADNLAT
Experimental: (§1) Also, the cells are washed twice. The cells are incubated in assay buffer plus IBMX for 15 minutes at room temperature. […] The stimuli are present for 30 minutes. Then, the assay buffer is gently removed. […] At day 3, the assay described above for the VPAC2 receptor cell line is performed.

[3] = tested on: Normal Wistar rats; assay: Intravenous glucose tolerance test (IVGTT); type: in vivo; settings: Wistar rat, insulin
Experimental: Intravenous glucose tolerance test (IVGTT): Normal Wistar rats are fasted overnight and are anesthetized prior to the experiment. A blood sampling catheter is inserted into the rats. The compound is given in the jugular vein. Blood samples are taken from the carotid artery. A blood sample is drawn immediately prior to the injection of glucose along with the compound. After the initial blood sample, glucose mixed with compound is injected intravenously (i.v.). A glucose challenge of 0.5 g/kg body weight is given, injecting a total of 1.5 mL vehicle with glucose and agonist per kg body weight. The peptide concentration vary to produce the desired dose in μg/kg. Blood samples are drawn at 2, 4, 6 and 10 minutes after giving glucose. The control group of animals receives the same vehicle along with glucose, but with no compound added. In some instances, a 30 minute post-glucose blood sample is drawn. Aprotinin is added to the blood sample (250 kIU/ml blood). The serum is then analyzed for glucose and insulin using standard methodologies.
The assay uses a formulated and calibrated peptide stock in PBS. Normally, this stock is a prediluted 100 μM stock. However, a more concentrated stock with approximately 1 mg agonist per mL is used. The specific concentration is always known. Variability in the maximal response is mostly due to variability in the vehicle dose.

[4] = target: T2, human PAC1; assay: biochemical
[5] = target: T1, human VPAC1; assay: DiscoveRx cAMP in vitro potency, human VPAC1; type: cell-based; design: expressed in transfected cells; host or cells: CHO-PO, transient transfection (Lipofectamine)
Experimental: as §1

[6] = target: T3, human VPAC2 (Homo sapiens, UniProt P41587); assay: DiscoveRx cAMP in vitro potency, human VPAC2; type: cell-based
T3 construct: expressed in transfected cells
T3 sequence (P41587 24-438): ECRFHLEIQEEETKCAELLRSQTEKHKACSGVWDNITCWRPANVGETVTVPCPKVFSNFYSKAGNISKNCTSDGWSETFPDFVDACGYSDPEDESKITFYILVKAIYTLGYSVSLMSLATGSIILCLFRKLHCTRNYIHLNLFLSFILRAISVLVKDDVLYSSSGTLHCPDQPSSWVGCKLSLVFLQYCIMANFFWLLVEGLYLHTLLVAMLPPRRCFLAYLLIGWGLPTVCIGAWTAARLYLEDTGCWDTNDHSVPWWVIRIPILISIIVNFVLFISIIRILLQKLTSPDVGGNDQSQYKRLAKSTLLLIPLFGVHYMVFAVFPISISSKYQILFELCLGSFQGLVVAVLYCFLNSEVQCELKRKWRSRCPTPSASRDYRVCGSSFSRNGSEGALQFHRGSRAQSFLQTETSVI
Experimental: as §1

[7] = target: T3, human VPAC2; assay: Alpha screen cAMP in vitro potency, human VPAC2; type: cell-based
[8] = target: T3, human VPAC2; assay: Filter binding assay, human VPAC2 membranes, 125I-labeled VIP tracer
[9] = target: rat VPAC2 receptor (Rattus norvegicus, UniProt P35000); assay: cell-based
Experimental: DiscoveRx: A CHO—S cell line stably expressing human VPAC2 receptor in a 96-well microtiter plate is seeded with 50,000 cells/well the day before the assay. The cells are allowed to attach for 24 hours in 200 μL culture medium. On the day of the experiment, the medium is removed. Also, the cells are washed twice. The cells are incubated in assay buffer plus IBMX for 15 minutes at room temperature. Afterwards, the stimuli are added and are dissolved in assay buffer. The stimuli are present for 30 minutes. Then, the assay buffer is gently removed. The cell lysis reagent of the DiscoveRx cAMP kit is added. Thereafter, the standard protocol for developing the cAMP signal as described by the manufacturer is used (DiscoveRx Inc., USA). EC50 values for cAMP generation are calculated from the raw signal or are based on absolute cAMP levels as determined by a standard curve performed on each plate.
CHO—PO cells are transiently transfected with rat VPAC1 or VPAC2 receptor DNA.

[10] = target: T4, human PAC1 receptor (human, UniProt P41586)
Target sequence in this assay (P41586 21-468): as the sequence (P41586 21-468) above

[11] = target: T5, human VPAC2 receptor (human) (UniProt P41587)
T5 sequence: T3 sequence (P41587 24-438)

[12] = target: T6, human VPAC1 receptor (human) (UniProt P32241)
T6 sequence: T1 sequence (P32241 31-457)

[13] = target: T7, rat VPAC2 receptor (rat, UniProt P35000); assay: cell-based or functional assay
T7 sequence: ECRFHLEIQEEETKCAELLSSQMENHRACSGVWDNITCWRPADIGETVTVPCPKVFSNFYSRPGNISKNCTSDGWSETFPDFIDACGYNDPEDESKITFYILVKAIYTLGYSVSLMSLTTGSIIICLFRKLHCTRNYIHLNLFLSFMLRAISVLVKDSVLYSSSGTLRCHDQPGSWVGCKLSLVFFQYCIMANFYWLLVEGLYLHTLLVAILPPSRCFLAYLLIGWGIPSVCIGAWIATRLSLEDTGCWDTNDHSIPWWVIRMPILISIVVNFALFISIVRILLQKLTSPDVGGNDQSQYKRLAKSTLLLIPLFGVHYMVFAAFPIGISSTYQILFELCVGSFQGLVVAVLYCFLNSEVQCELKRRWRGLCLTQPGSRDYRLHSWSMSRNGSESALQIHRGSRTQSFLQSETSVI

[14] = target: T8, rat VPAC1 receptor (rat, UniProt P30083); assay: cell-based or functional assay
T8 sequence: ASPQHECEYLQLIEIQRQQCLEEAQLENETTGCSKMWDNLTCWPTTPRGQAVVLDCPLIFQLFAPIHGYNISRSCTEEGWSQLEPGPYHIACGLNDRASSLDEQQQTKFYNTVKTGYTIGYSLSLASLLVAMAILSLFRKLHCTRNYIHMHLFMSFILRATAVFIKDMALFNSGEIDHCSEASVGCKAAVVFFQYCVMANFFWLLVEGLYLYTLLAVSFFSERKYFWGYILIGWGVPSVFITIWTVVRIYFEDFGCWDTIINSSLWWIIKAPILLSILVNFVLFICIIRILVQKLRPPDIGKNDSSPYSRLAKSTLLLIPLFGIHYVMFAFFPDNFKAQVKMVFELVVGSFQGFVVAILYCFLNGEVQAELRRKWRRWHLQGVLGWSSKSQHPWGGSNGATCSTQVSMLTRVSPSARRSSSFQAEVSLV

[15] = target: T4, human PAC1 receptor; assay: cell-based or functional assay

CCCCCC(=O)N[C@@H](Cc1c[nH]cn1)C(=O)N[C@@H](CO)C(=O)N[C@@H](CC(=O)O)C(=O)N[C@@H](C)C(=O)N[C@H](C(=O)N[C@@H](Cc1ccccc1)C(=O)N[C@H](C(=O)N[C@@H](CC(=O)O)C(=O)N[C@@H](CC(N)=O)C(=O)N[C@@H](Cc1ccc(O)cc1)C(=O)N[C@H](C(=O)N[C@@H](CCCNC(=N)N)C(=O)N[C@@H](CC(C)C)C(=O)N[C@@H](CCCNC(=N)N)C(=O)N[C@@H](CCCCN)C(=O)N[C@@H](CCC(N)=O)C(=O)N[C@H](C(=O)N[C@@H](C)C(=O)N[C@@H](C)C(=O)N[C@@H](CCCCN)C(=O)N[C@@H](CCCCN)C(=O)N[C@@H](Cc1ccc(O)cc1)C(=O)N[C@@H](CC(C)C)C(=O)N[C@@H](CCC(N)=O)C(=O)N[C@@H](CO)C(=O)N[C@H](C(=O)N[C@@H](CCCCN)C(=O)N[C@@H](CC(N)=O)C(=O)N[C@@H](CO)C(=O)N[C@@H](CCCNC(=N)N)C(=O)N[C@H](C(=O)N[C@@H](CO)C(=O)N1CCC[C@H]1C(=O)N1CCC[C@H]1C(=O)N1CCC[C@H]1C(N)=O)[C@@H](C)O)[C@@H](C)CC)C(C)C)[C@@H](C)O)[C@@H](C)O)C(C)C [Agonist P30] (Hexanoyl-HSDAVFTDNYTRLRKQVAAKKYLQSIKNSRTSPPP-NH2)
IC50 [1]: 33.8 nM | EC50 [2]: 27 nM | % increase AUC: Dose = 0.1 μg/kg ([3]; dose 0.1 μg/kg): 67% | % increase AUC: Dose = 0.5 μg/kg ([3]; dose 0.5 μg/kg): 241% | % increase AUC: Dose = 10 μg/kg ([3]; dose 10 μg/kg): 378% | IC50 [4]: 214 nM | EC50 [5]: 6.45 nM | Rat Serum Stability (Estimated purity in % after 72 hours) (rat serum, 72 hours): 1.0% | EC50 [6]: 0.09 nM | EC50 [7]: 0.08 nM | IC50 [8]: 0.22 nM

CCCCCCCCCCCCCCCC(=O)N[C@@H](CCC(=O)NCCCC[C@H](NC(=O)[C@@H]1CCCN1C(=O)[C@@H]1CCCN1C(=O)[C@@H]1CCCN1C(=O)[C@H](CO)NC(=O)[C@@H](NC(=O)[C@H](CCCNC(=N)N)NC(=O)[C@H](CO)NC(=O)[C@H](CC(N)=O)NC(=O)[C@H](CCCCN)NC(=O)[C@@H](NC(=O)[C@H](CO)NC(=O)[C@H](CCC(N)=O)NC(=O)[C@H](CC(C)C)NC(=O)[C@H](Cc1ccc(O)cc1)NC(=O)[C@H](CCCCN)NC(=O)[C@H](CCCCN)NC(=O)[C@H](C)NC(=O)[C@H](C)NC(=O)[C@@H](NC(=O)[C@H](CCC(N)=O)NC(=O)[C@H](CCCCN)NC(=O)[C@H](CCCNC(=N)N)NC(=O)[C@H](CC(C)C)NC(=O)[C@H](CCCNC(=N)N)NC(=O)[C@@H](NC(=O)[C@H](Cc1ccc(O)cc1)NC(=O)[C@H](CC(N)=O)NC(=O)[C@H](CC(=O)O)NC(=O)[C@@H](NC(=O)[C@H](Cc1ccccc1)NC(=O)[C@@H](NC(=O)[C@H](C)NC(=O)[C@H](CC(=O)O)NC(=O)[C@H](CO)NC(=O)[C@H](Cc1c[nH]cn1)NC(=O)CCCCC)C(C)C)[C@@H](C)O)[C@@H](C)O)C(C)C)[C@@H](C)CC)[C@@H](C)O)C(N)=O)C(=O)O [Agonist P81] (Hexanoyl-HSDAVFTDNYTRLRKQVAAKKYLQSIKNSRTSPPPK([γGlu-Palmitoyl])-NH2)
EC50 [9]: 0.05 nM | IC50 [1]: 228 nM | Rat Serum Stability (Estimated purity in % after 18 hours) (10 μM peptide in rat serum, 37° C. vs 4° C. with aprotinin, 18 hours, EC50,4C/EC50,37C): 68.05% | EC50 [6]: 0.18 nM | EC50 [7]: 0.01 nM | IC50 [8]: 0.8 nM

B1: P5 (peptide)
peptide: HSDAVFTDNYTRLRKQVAAKKYLQSIKNSRTSPPP-NH2
EC50 (nM) for cAMP generation, DiscoveRx [10]: 30 nM | EC50 (nM) for cAMP generation, Alpha Screen [11]: 1.5 nM | EC50 (nM) for cAMP generation, DiscoveRx [11]: 1.21 nM | EC50 (nM) for cAMP generation, DiscoveRx [12]: 1.1 nM | EC50 for cAMP generation, DiscoveRx [13]: 2.23 nM | EC50 for cAMP generation, DiscoveRx [14]: 0.96 nM

B2: P30 (peptide)
peptide: Hexanoyl-HSDAVFTDNYTRLRKQVAAKKYLQSIKNSRTSPPP-NH2
SMILES: CCCCCC(=O)N[C@@H](Cc1c[nH]cn1)C(=O)N[C@@H](CO)C(=O)N[C@@H](CC(=O)O)C(=O)N[C@@H](C)C(=O)N[C@H](C(=O)N[C@@H](Cc1ccccc1)C(=O)N[C@H](C(=O)N[C@@H](CC(=O)O)C(=O)N[C@@H](CC(N)=O)C(=O)N[C@@H](Cc1ccc(O)cc1)C(=O)N[C@H](C(=O)N[C@@H](CCCNC(=N)N)C(=O)N[C@@H](CC(C)C)C(=O)N[C@@H](CCCNC(=N)N)C(=O)N[C@@H](CCCCN)C(=O)N[C@@H](CCC(N)=O)C(=O)N[C@H](C(=O)N[C@@H](C)C(=O)N[C@@H](C)C(=O)N[C@@H](CCCCN)C(=O)N[C@@H](CCCCN)C(=O)N[C@@H](Cc1ccc(O)cc1)C(=O)N[C@@H](CC(C)C)C(=O)N[C@@H](CCC(N)=O)C(=O)N[C@@H](CO)C(=O)N[C@H](C(=O)N[C@@H](CCCCN)C(=O)N[C@@H](CC(N)=O)C(=O)N[C@@H](CO)C(=O)N[C@@H](CCCNC(=N)N)C(=O)N[C@H](C(=O)N[C@@H](CO)C(=O)N1CCC[C@H]1C(=O)N1CCC[C@H]1C(=O)N1CCC[C@H]1C(N)=O)[C@@H](C)O)[C@@H](C)CC)C(C)C)[C@@H](C)O)[C@@H](C)O)C(C)C
EC50 (nM) for cAMP generation, DiscoveRx [10]: 27 nM | EC50 (nM) for cAMP generation, Alpha Screen [11]: 0.08 nM | EC50 (nM) for cAMP generation, DiscoveRx [11]: 0.09 nM | EC50 (nM) for cAMP generation, DiscoveRx [12]: 6.45 nM | EC50 for cAMP generation, DiscoveRx [14]: 0.62 nM

B3: P32 (peptide)
peptide: Ac-HSDAVFTDNYTRLRKQVAAKKYLQSIKNSRTSPPP-NH2
EC50 (nM) for cAMP generation, DiscoveRx [15]: 125 nM | EC50 (nM) for cAMP generation, Alpha Screen [11]: 0.32 nM | EC50 (nM) for cAMP generation, DiscoveRx [11]: 0.65 nM | EC50 (nM) for cAMP generation, DiscoveRx [12]: 8.24 nM | EC50 for cAMP generation, DiscoveRx [14]: 0.73 nM
